pIC50: −log10 of the molar value.

For test [1], the system named is synthesis of LTB4 in human whole blood. The test is described as follows: human whole blood LTB4 production inhibition assay. The test is classed as cell-based. As to conditions: Homo sapiens, heparinized human whole blood, calcimycin 20 μM; read-out: hWB LTB4 IC50. Summed up:
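Heparinized human whole blood preincubated with compound 15 min at 37 °C, then stimulated with calcimycin (20 μM final) for 30 min at 37 °C. Plasma LTB4 measured after low-speed centrifugation by antibody-based homogeneous time-resolved fluorescence.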

Test [2] deals with T1, recombinant human FLAP protein (Homo sapiens, UniProt P20292).
T1 construct: made in house; host or cells: Sf9 insect cells (100,000 x g membrane fraction)
T1 sequence (P20292 1-161): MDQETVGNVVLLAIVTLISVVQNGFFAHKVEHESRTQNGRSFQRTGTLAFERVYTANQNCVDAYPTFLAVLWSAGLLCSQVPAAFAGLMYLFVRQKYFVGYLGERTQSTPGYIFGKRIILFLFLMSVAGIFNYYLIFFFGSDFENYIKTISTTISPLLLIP
Nature of the test: FLAP binding assay (Scintillation Proximity Assay, displacement of [125I]L-691,831). As to conditions: recombinant human FLAP membranes, [125I]L-691,831 probe; read-out: FLAP SPA IC50. Summed up:
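Membranes came from Sf9 insect cells expressing recombinant human FLAP, collected as the 100,000×g pellet in Tris pH 7.5/MgCl2/EDTA buffer. 5 μg membrane protein was coupled to WGA SPA beads for 1 h.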

Consider `Nc1ncc(-c2ccc(C3(c4noc(-c5ccc(C(=O)N6CC(O)C6)nc5)n4)CCC3)cc2)cn1` [Example 64, [5-(3-{1-[4-(2-Amino-pyrimidin-5-yl)-phenyl]-cyclobutyl}-1,2,4-oxadiazol-5-yl)-pyridin-2-yl]-(3-hydroxy-azetidin-1-yl)-methanone], for which the figures for the negative logarithm of the IC50 (pIC50) in test [1] and in test [2] were 6.51 and 8.11, respectively.

In the case of `Nc1ncc(-c2ccc(C3(c4noc(-c5ccccc5)n4)CCC3)cc2)cn1` [Example 144, 5-{4-[1-(5-Phenyl-1,2,4-oxadiazol-3-yl)-cyclobutyl]-phenyl}-pyrimidin-2-ylamine], the pIC50 in test [1] is 6.33; in test [2] it was 8.85.

On to `CN(C)C(=O)Cn1cc(-c2nc(C3(c4ccc(-c5cnc(N)nc5)cc4)CC3)no2)cn1` [Example 268, 2-[4-(3-{1-[4-(2-Amino-pyrimidin-5-yl)-phenyl]-cyclopropyl}-[1,2,4]oxadiazol-5-yl)-pyrazol-1-yl]-N,N-dimethyl-acetamide], for which the negative-log IC50 (pIC50) in test [1] was under 5.30; in test [2] it was 6.17.

In the case of `CN(CCO)c1cc(-c2nc(C3(c4ccc(-c5cnc(N)nc5)cc4)CCC3)no2)ccn1` [Example 94, 2-{[4-(3-{1-[4-(2-amino-pyrimidin-5-yl)-phenyl]-cyclobutyl}-1,2,4-oxadiazol-5-yl)-pyridin-2-yl]-methyl-amino}-ethanol], the values for the pIC50 in test [1] and in test [2] were 6.25 and 8.21, respectively.

Turning to `Nc1ncc(-c2ccc(C3(c4noc(C(=O)N5CCCC5)n4)CCC3)cc2)cn1` [Example 11, (3-{1-[4-(2-Amino-pyrimidin-5-yl)-phenyl]-cyclobutyl}-1,2,4-oxadiazol-5-yl)-pyrrolidin-1-yl-methanone], the pIC50 in test [1] was 5.89; in test [2], 6.92.

On to `Cn1cc(-c2nc(C3(c4ccc(-c5cnc6[nH]ccc6n5)cc4)CCC3)no2)cn1` [Example 262, 2-(4-{1-[5-(1-Methyl-1H-pyrazol-4-yl)-[1,2,4]oxadiazol-3-yl]-cyclobutyl}-phenyl)-5H-pyrrolo[2,3-b]pyrazine], for which the pIC50 in test [1] is 7.57; in test [2], 8.62.

As to `COCCNc1cnc(-c2nc(C3(c4ccc(-c5cnc(N)nc5)cc4)CCC3)no2)cn1` [Example 62, 5-[4-(1-{5-[5-(2-Methoxy-ethylamino)-pyrazin-2-yl]-1,2,4-oxadiazol-3-yl}-cyclobutyl)-phenyl]-pyrimidin-2-ylamine], the pIC50 in test [1] was 7.89; in test [2], 8.89.

Turning to `Nc1ncc(-c2ccc(C3(c4noc(Cn5ccnc5)n4)CCC3)cc2)cn1` [Example 277, 5-{4-[1-(5-Imidazol-1-ylmethyl-[1,2,4]oxadiazol-3-yl)-cyclobutyl]-phenyl}-pyrimidin-2-ylamine], the values for the pIC50 in test [1] and in test [2] were 5.55 and 6.59, respectively.

Turning to `Nc1ncc(-c2ccc(C3(c4noc(-c5cccnc5)n4)CCOCC3)cc2)cn1` [Example 146, 5-{4-[4-(5-Pyridin-3-yl-1,2,4-oxadiazol-3-yl)-tetrahydro-pyran-4-yl]-phenyl}-pyrimidin-2-ylamine], the results for the negative-log IC50 (pIC50) in test [1] and in test [2] were 6.08 and 7.57, respectively.

On to `CCOC(=O)CCN1CCN(c2ccc(-c3nc(C4(c5ccc(-c6cnc(N)nc6)cc5)CCC4)no3)cn2)CC1` [Example 106, 3-{4-[5-(3-{1-[4-(2-Amino-pyrimidin-5-yl)-phenyl]-cyclobutyl}-1,2,4-oxadiazol-5-yl)-pyridin-2-yl]-piperazin-1-yl}-propionic acid ethyl ester], for which the values for the pIC50 in test [1] and in test [2] were 6.89 and 8.57, respectively.

Take `Nc1ncc(-c2ccc(C3(c4noc(-c5cnn(C6CCNCC6)c5)n4)CCC3)cc2)cn1` [Example 233, 5-(4-{1-[5-(1-Piperidin-4-yl-1H-pyrazol-4-yl)-[1,2,4]oxadiazol-3-yl]-cyclobutyl}-phenyl)-pyrimidin-2-ylamine]: the pIC50 in test [1] was 6.15; in test [2] it was 8.01.

As usually defined, the pIC50 is the IC50 on a negative log10 scale, so that one unit is a factor of ten.
